Article PMC4079055 (The New England journal of medicine, 2014)
Like-named read-outs stand apart in the source and are kept apart here.

Tests used:
MET = conditions: cited from earlier work
ALK = conditions: enzymatic assays; cited from earlier work
[1] = Phase 1 study of oral ceritinib: safety, dose-limiting toxic events, MTD; format: in vivo
clinical = conditions: human, in vivo
[2] = system: ALK-rearranged NSCLC xenograft; conditions: crizotinib-sensitive and crizotinib-resistant tumors; cited from earlier work
ALK-rearranged NSCLC = assay: Phase 1 study: antitumor activity; format: in vivo, human
[3] = cited from earlier work
[4] = at least 400 mg daily, 114 patients with NSCLC

## Cc1cc(Nc2ncc(Cl)c(Nc3ccccc3S(=O)(=O)C(C)C)n2)c(OC(C)C)cc1C1CCNCC1 [Ceritinib]
MET
  Inhibition of the kinase activity of MET: does not inhibit
ALK
  Potency against ALK relative to crizotinib: 20 times
[1]; all 130 patients
  Treatment-related deaths: No treatment-related deaths occurred
[1]; human, in vivo
  Any event, grade 3 or 4, suspected to be related: 64 (49) number of patients with event (percent)
  Diarrhea, grade 3 or 4, suspected to be related: 9 (7) number of patients with event (percent)
  Dose-limiting toxic events: diarrhea (at a daily dose of ≥600 mg), vomiting (at 750 mg daily), nausea (at 750 mg daily), dehydration (at 600 mg daily), elevated alanine aminotransferase level (at 400 mg daily), and hypophosphatemia (at 400 mg daily)
  Elevated alanine aminotransferase level, grade 3 or 4, suspected to be related: 27 (21) number of patients with event (percent)
  Elevated amylase level, grade 3 or 4, suspected to be related: 3 (2) number of patients with event (percent)
  Elevated aspartate aminotransferase level, grade 3 or 4, suspected to be related: 14 (11) number of patients with event (percent)
  Elevated blood alkaline phosphatase level, grade 3 or 4, suspected to be related: 3 (2) number of patients with event (percent)
  Elevated lipase level, grade 3 or 4, suspected to be related: 9 (7) number of patients with event (percent)
  Fatigue, grade 3 or 4, suspected to be related: 6 (5) number of patients with event (percent)
  Hyperglycemia, grade 3 or 4, suspected to be related: 3 (2) number of patients with event (percent)
  Hypophosphatemia, grade 3 or 4, suspected to be related: 4 (3) number of patients with event (percent)
  Incidence of grade 3 or 4 nausea: 5%
  Median duration of treatment interruption: 7.3 days
  Nausea, grade 3 or 4, suspected to be related: 7 (5) number of patients with event (percent)
  Study drug permanently discontinued owing to an adverse event: 6%
  Vomiting, grade 3 or 4, suspected to be related: 6 (5) number of patients with event (percent)
[1]; in vivo
  Cases of interstitial lung disease possibly related to therapy: four
  Dose-limiting toxic events: diarrhea, vomiting, dehydration, elevated aminotransferase levels, and hypophosphatemia
[1]; oral, once daily, dose-escalation phase, 59 patients
  Maximum tolerated dose (MTD): 750 mg daily
clinical
  Day by which steady-state levels were achieved: ~15 days
  Increase in Cmax in relation to dose: slightly greater than proportional to the dose
clinical; 750 mg
  half-life: ~40 h
clinical; po
  Mean (±SD) area under the plasma concentration–time curve over a 24-hour period: 16,500±4750 ng per milliliter per hour
  Mean Cmax: 800±205 ng per milliliter
clinical; po, 750 mg
  Time at which Cmax was achieved after receipt of the dose: approximately 6 hours
[2]
  Antitumor activity in xenograft models: marked antitumor activity
ALK-rearranged NSCLC; 750 mg daily, 78 patients with NSCLC, 95% CI 47 to 70
  Overall response rate: 59%
ALK-rearranged NSCLC; 19 crizotinib-resistant patients with repeat biopsy
  Tumor regression by molecular status: Tumor regression was observed in all the patients
ALK-rearranged NSCLC; 50 patients without central nervous system metastases, ≥400 mg daily
  Median progression-free survival: 7.0 months
ALK-rearranged NSCLC; 50 to 300 mg daily, 8 patients with NSCLC
  Patients with confirmed partial response: 2 patients
ALK-rearranged NSCLC; 64 patients with central nervous system metastases at baseline, ≥400 mg daily
  Median progression-free survival: 6.9 months
ALK-rearranged NSCLC; 66 responders, at least 400 mg daily, 95% CI 6.9 to 11.4
  Median duration of response: 8.2 months
ALK-rearranged NSCLC; 66 responders, at least 400 mg daily, 95% CI 50 to 74
  Patients with duration of response of 6 months or longer: 64%
ALK-rearranged NSCLC; 80 patients who had previously received crizotinib, 400 to 750 mg daily, 95% CI 5.3 to 8.8
  Median progression-free survival: 6.9 months
ALK-rearranged NSCLC; 114 patients with NSCLC, at least 400 mg daily, 95% CI 5.6 to 9.5
  Median progression-free survival: 7.0 months
ALK-rearranged NSCLC; [4]
  Confirmed complete response: 1%
  Confirmed partial response: 57%
  Progressive disease on the first restaging scans: 11%
  Stable disease: 22%
ALK-rearranged NSCLC; at least 400 mg daily, 114 patients with NSCLC, 95% CI 48 to 67
  Overall response rate: 58%
ALK-rearranged NSCLC; data immature, 72% censored
  Median overall survival: had not been reached
ALK-rearranged NSCLC; no previous crizotinib, at least 400 mg daily, 34 patients, 95% CI 44 to 78
  Overall response rate: 62%
ALK-rearranged NSCLC; of 7 crizotinib-resistant patients with ALK gene amplification or mutation
  Patients with confirmed responses: 6 patients
ALK-rearranged NSCLC; of 12 crizotinib-resistant patients without ALK alteration
  Patients with confirmed responses: 7 patients
ALK-rearranged NSCLC; one patient with crizotinib-resistant disease, after 6 weeks of treatment
  Reduction in tumor burden on computed tomographic scans: 52%
ALK-rearranged NSCLC; patients who had received crizotinib previously
  Responses in untreated central nervous system lesions: responses were seen in untreated lesions in the central nervous system
ALK-rearranged NSCLC; previously treated with crizotinib, 400 mg or more daily, 80 patients, 95% CI 45 to 67
  Overall response rate: 56%
ALK-rearranged NSCLC; previously treated with crizotinib, 750 mg daily, 50 patients, 95% CI 41 to 70
  Overall response rate: 56%

## C[C@@H](Oc1cc(-c2cnn(C3CCNCC3)c2)cnc1N)c1c(Cl)ccc(F)c1Cl [crizotinib]
[3]
  Incidence of grade 3 or 4 nausea: 1%
[3]; of 321 patients
  Patients with drug-related diarrhea of grade 3 or 4: 0 patients
